Experimental data as given in ChEMBL document CHEMBL1201862, “PubChem BioAssay data set” (2004).
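Where inhibition never reached the appropriate level, the endpoint shown equals the highest concentration tested. Otherwise, values were interpolated linearly from a five-concentration, 48-hour dose response in 96-well plates. Abbreviation: GI50, concentration required for 50% inhibition of growth.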 Activity calls are given as the source filed them. No stated cut-off is given here; in the data, active = GI50 up to about 1.1 µM and inactive = higher.

Assays:
Experiment in all cases: DTP human tumour cell line panel, 48 h
BT-549 = system: BT-549
HCT-15 = system: HCT-15
HOP-92 = system: HOP-92
HT-29 = system: HT-29
MDA-MB-231 = system: MDA-MB-231
MOLT-4 = system: MOLT-4
NCI-H522 = system: NCI-H522
OVCAR-4 = system: OVCAR-4
PC-3 = system: PC-3
SF-268 = system: SF-268
SF-295 = system: SF-295
SK-OV-3 = system: SK-OV-3
SNB-19 = system: SNB-19
SNB-75 = system: SNB-75
SR = system: SR
SW-620 = system: SW-620
TK-10 = system: TK-10
U-251 = system: U-251
NCI-H23 = system: NCI-H23
OVCAR-3 = system: OVCAR-3

| Structure (SMILES) | GI50 (BT-549) | GI50 (HCT-15) | GI50 (HOP-92) | GI50 (HT-29) | GI50 (MDA-MB-231) | GI50 (MOLT-4) | GI50 (NCI-H522) | GI50 (OVCAR-4) | GI50 (PC-3) | GI50 (SF-268) | GI50 (SF-295) | GI50 (SK-OV-3) | GI50 (SNB-19) | GI50 (SNB-75) | GI50 (SR) | GI50 (SW-620) | GI50 (TK-10) | GI50 (U-251) | GI50 (NCI-H23) | GI50 (OVCAR-3) |
| --- | --- | --- | --- | --- | --- | --- | --- | --- | --- | --- | --- | --- | --- | --- | --- | --- | --- | --- | --- | --- |
| O=c1oc2ccccc2cc1-c1nc2ccccc2c(=O)[nH]1 | 77.8 µM (inactive) | > 100 µM | > 100 µM (inactive) | > 100 µM (inactive) | > 100 µM (inactive) | > 100 µM (inactive) | > 100 µM (inactive) | > 100 µM (inactive) | > 100 µM (inactive) | > 100 µM (inactive) | 54 µM (inactive) | > 100 µM (inactive) | > 100 µM (inactive) | 69.3 µM (inactive) | > 100 µM (inactive) | > 100 µM (inactive) | > 100 µM (inactive) | 50.4 µM (inactive) |  |  |
| CCOC(=O)COc1cc(-c2ccccc2)nc2cc(F)ccc12 | > 100 µM (inactive) | > 100 µM | 52 µM (inactive) | > 100 µM (inactive) | > 100 µM (inactive) | > 100 µM (inactive) |  | 42 µM (inactive) | > 100 µM (inactive) | > 100 µM (inactive) | > 100 µM (inactive) | > 100 µM (inactive) |  | > 100 µM (inactive) | > 100 µM (inactive) | > 100 µM (inactive) | > 100 µM (inactive) | > 100 µM (inactive) | > 100 µM (inactive) | > 100 µM (inactive) |
| N=c1oc2ccc(Cl)cc2cc1C(=O)NC1CCCCC1 | > 100 µM (inactive) | 37.8 µM | > 100 µM (inactive) | > 100 µM (inactive) | > 100 µM (inactive) | 44.2 µM (inactive) |  | > 100 µM (inactive) | 68.5 µM (inactive) | > 100 µM (inactive) |  | > 100 µM (inactive) | > 100 µM (inactive) | 84.5 µM (inactive) | 51.5 µM (inactive) | 96.4 µM (inactive) |  | > 100 µM (inactive) | > 100 µM (inactive) | 44.4 µM (inactive) |
| C/C=C(/C)c1cnc(CC(C)C)c(=O)[nH]1 | > 100 µM (inactive) | > 100 µM | > 100 µM (inactive) | > 100 µM (inactive) | > 100 µM (inactive) | > 100 µM (inactive) |  | > 100 µM (inactive) | > 100 µM (inactive) | > 100 µM (inactive) | > 100 µM (inactive) | > 100 µM (inactive) | > 100 µM (inactive) | > 100 µM (inactive) | > 100 µM (inactive) | > 100 µM (inactive) | > 100 µM (inactive) | > 100 µM (inactive) | > 100 µM (inactive) | > 100 µM (inactive) |
| CCOC(=O)CCC(NC(=O)C(N)c1ccc([N+](=O)[O-])cc1)C(=O)NC(CCC(=O)OCC)C(=O)OCC (stereo not given) | > 100 µM (inactive) | > 100 µM | > 100 µM (inactive) | > 100 µM (inactive) | > 100 µM (inactive) | > 100 µM (inactive) |  |  | > 100 µM (inactive) |  |  |  | > 100 µM (inactive) | > 100 µM (inactive) | > 100 µM (inactive) | > 100 µM (inactive) | > 100 µM (inactive) | > 100 µM (inactive) | > 100 µM (inactive) |  |
| O=C1CCCCN1C(=O)c1ccc([N+](=O)[O-])cc1 | > 100 µM (inactive) | > 100 µM | > 100 µM (inactive) | > 100 µM (inactive) | > 100 µM (inactive) | > 100 µM (inactive) | > 100 µM (inactive) | > 100 µM (inactive) | 44.3 µM (inactive) | > 100 µM (inactive) | > 100 µM (inactive) |  | > 100 µM (inactive) | > 100 µM (inactive) | > 100 µM (inactive) | > 100 µM (inactive) | > 100 µM (inactive) | > 100 µM (inactive) | > 100 µM (inactive) | > 100 µM (inactive) |
